These are literature values, as cited in paper PMC2750848 (Journal of medicinal chemistry, 2008).

Marks after values point to notes of the source that are not given here.

The series concerns M. tuberculosis H37Rv.

Regarding “5′-O-[N-(salicyl)sulfamoyl]adenosine [Compound 4]”, the “MIC99 (Fe-deficient)” value (Fe-deficient) is 0.39 ^i µM. Further, the “MIC99 (Fe-rich)” value (Fe-rich) is recorded as 1.56 ^i µM.
